From ChEMBL document CHEMBL4765458, “Synthesis and biological evaluation of organoselenium (NSAIDs-SeCN and SeCF) derivatives as potential anticancer agents” (Eur J Med Chem, 2020)
The source made the active and inactive calls. The rule behind the calls is not given here.

Experiments:
[1] = Antioxidant activity assessed as DPPH radical scavenging activity incubated for 30 mins under dark condition relative to control; format: functional; set-up: concentration or dose not given beside the values
[2] = Antioxidant activity assessed as bleomycin-Fe2+-induced DNA degradation by measuring absorbance at 0.1 mg/ml after 1 hr; format: functional
HeLa [3] = experiment: Cytotoxicity against human HeLa cells assessed as reduction in cell viability measured after 48 hrs by MTT assay; format: functional, cell-based
MCF7 [4] = experiment: Induction of apoptosis in human MCF7 cells assessed as up regulation of caspase-3 expression at IC50 measured after 48 hrs by ELISA relative to control; format: functional
A549 [5] = experiment: Cytotoxicity against human A549 cells assessed as reduction in cell viability measured after 24 hrs by MTT assay; format: functional, cell-based; conditions: A549, 24 h
SW480 [6] = experiment: Cytotoxicity against human SW480 cells assessed as reduction in cell viability measured after 48 hrs by MTT assay; format: functional, cell-based; conditions: SW480, 48 h
A549 [7] = experiment: cells; conditions: Homo sapiens, A549, 48 h
Description: Cytotoxicity against human A549 cells assessed as reduction in cell viability measured after 48 hrs by MTT assay

MCF7 [8] = experiment: Induction of apoptosis in human MCF7 cells assessed as up regulation of IL-2 expression at IC50 measured after 48 hrs by ELISA relative to control; format: functional
SW480 [9] = experiment: Cytotoxicity against human SW480 cells assessed as reduction in cell viability measured after 72 hrs by MTT assay; format: functional, cell-based; conditions: SW480, 72 h
HeLa [10] = experiment: Cytotoxicity against human HeLa cells assessed as reduction in cell viability measured after 24 hrs by MTT assay; format: functional, cell-based
HeLa [11] = experiment: Cytotoxicity against human HeLa cells assessed as reduction in cell viability measured after 72 hrs by MTT assay; format: functional, cell-based
MCF7 [12] = experiment: Cytotoxicity against human MCF7 cells assessed as reduction in cell viability measured after 24 hrs by MTT assay; format: functional, cell-based; conditions: MCF7, 24 h
MCF7 [13] = experiment: Cytotoxicity against human MCF7 cells assessed as reduction in cell viability measured after 72 hrs by MTT assay; format: functional, cell-based; conditions: MCF7, 72 h
A549 [14] = experiment: Cytotoxicity against human A549 cells assessed as reduction in cell viability measured after 72 hrs by MTT assay; format: functional, cell-based; conditions: A549, 72 h
MCF7 [15] = experiment: Induction of apoptosis in human MCF7 cells assessed as down regulation of Bcl-2 expression at IC50 measured after 48 hrs by ELISA relative to control; format: functional
SW480 [16] = experiment: Cytotoxicity against human SW480 cells assessed as reduction in cell viability measured after 24 hrs by MTT assay; format: functional, cell-based; conditions: SW480, 24 h
[17] = Antioxidant activity assessed as GPx-like activity by measuring oxidation of NADPH to NADP+ by NADPH-reductase coupled assay; format: functional
MCF7 [18] = experiment: Cytotoxicity against human MCF7 cells assessed as reduction in cell viability measured after 48 hrs by MTT assay; format: functional, cell-based; conditions: MCF7, 48 h

Work on `O=C1O[C@H]([C@@H](O)CO)C(O)=C1O` yielded an inhibition [1] of 92.4% and a deltaA [2] of 295.

With `CC(=O)Oc1ccccc1C(=O)NCCC[Se]C(F)(F)F` the IC50 (HeLa [3]) was 26.3 µM, the “fold change (FC)” value (MCF7 [4]) was 5 and the IC50 (A549 [5]) was 16.4 µM. The IC50 (SW480 [6]) was 7.2 µM, the inhibition [1] was 72.5% and the IC50 (A549 [7]) was 18.6 µM. For the same molecule, the Activity (MCF7 [8]) was “Active”, the IC50 (SW480 [9]) was 7.8 µM and the IC50 (HeLa [10]) was 28.7 µM. The IC50 (HeLa [11]) was 15.4 µM, the IC50 (MCF7 [12]) was 3.5 µM and the IC50 (MCF7 [13]) was 4.4 µM. It also gave an IC50 (A549 [14]) of 17.3 µM, an Activity (MCF7 [15]) greater than 50% and an IC50 (SW480 [16]) of 8.2 µM. The Activity [17] was “Active” and the IC50 (MCF7 [18]) was 4.2 µM.

For `CC(C)Cc1ccc(C(C)C(=O)NCCC[Se]C#N)cc1` (stereo unspecified), the IC50 (HeLa [3]) was 26.3 µM, the Activity (MCF7 [4]) was “Active” and the IC50 (A549 [5]) was 24.4 µM. For the same molecule, the IC50 (SW480 [6]) was 5.3 µM, the inhibition [1] was 60.8% and the IC50 (A549 [7]) was 30.2 µM. The “fold change (FC)” value (MCF7 [8]) was 1.5, the IC50 (SW480 [9]) was 6.4 µM and the IC50 (HeLa [10]) was 13.5 µM. It also gave an IC50 (HeLa [11]) of 29.3 µM, an IC50 (MCF7 [12]) of 12.1 µM and an IC50 (MCF7 [13]) of 16.5 µM. The IC50 (A549 [14]) was 28.5 µM, the Activity (MCF7 [15]) was “Active” and the IC50 (SW480 [16]) was 8.9 µM. The Activity [17] was “Active” and the IC50 (MCF7 [18]) was 14.3 µM.
